Source: article PMC5218480 (PLoS ONE, 2017)

Test system: MV-4-11 cells
Test: Gene expression microarray analysis (Affymetrix PrimeView) and GSEA
Type: cell-based, human
Design: RFU PODN (11730768_x_at) / Fold change /veh PODN (11730768_x_at) / RFU LINC00158 (11744669_a_at) / Fold change /veh LINC00158 (11744669_a_at) / RFU DUSP10 (11751237_a_at) / Fold change /veh DUSP10 (11751237_a_at) / RFU ID3 (11757404_x_at) / Fold change /veh ID3 (11757404_x_at) / RFU PLEKHG5 (11737974_s_at) / Fold change /veh PLEKHG5 (11737974_s_at) / RFU LRRC4B (11730491_at) / Fold change /veh LRRC4B (11730491_at) / RFU GIMAP4 (11747438_a_at) / Fold change /veh GIMAP4 (11747438_a_at) / RFU KRT8 (11758183_x_at) / Fold change /veh KRT8 (11758183_x_at) / RFU CNN1 (11734310_a_at) / Fold change /veh CNN1 (11734310_a_at) / RFU VPS37D (11726825_at) / Fold change /veh VPS37D (11726825_at) / RFU C10orf10 (11716522_x_at) / Fold change /veh C10orf10 (11716522_x_at) / RFU KIR2DL2 /// KIR2DL4 /// KIR2DL5A /// KIR2DL5B /// KIR2DS1 /// KIR2DS2 /// KIR2DS3 /// KIR2DS4 /// KIR3DL3 /// KIR3DL3 /// KIR3DS1 (11738374_at) / Fold change /veh KIR2DL2 /// KIR2DL4 /// KIR2DL5A /// KIR2DL5B /// KIR2DS1 /// KIR2DS2 /// KIR2DS3 /// KIR2DS4 /// KIR3DL3 /// KIR3DL3 /// KIR3DS1 (11738374_at) / RFU C1QL1 (11718748_at) / Fold change /veh C1QL1 (11718748_at) / RFU TMPRSS4 (11747572_a_at) / Fold change /veh TMPRSS4 (11747572_a_at) / RFU HAMP (11756126_x_at) / Fold change /veh HAMP (11756126_x_at) / RFU RNFT2 (11725882_a_at) / Fold change /veh RNFT2 (11725882_a_at) / RFU NR4A2 (11747474_a_at) / Fold change /veh NR4A2 (11747474_a_at) / RFU ABCC12 (11746883_a_at) / Fold change /veh ABCC12 (11746883_a_at) / RFU TMEM136 (11760407_x_at) / Fold change /veh TMEM136 (11760407_x_at) / RFU CLDN22 /// WWC2 (11732394_at) / Fold change /veh CLDN22 /// WWC2 (11732394_at) / RFU HLA-DPB1 (11760878_x_at) / Fold change /veh HLA-DPB1 (11760878_x_at) / RFU SPINT1 (11716480_a_at) / Fold change /veh SPINT1 (11716480_a_at) / RFU GAP43 (11754022_s_at) / Fold change /veh GAP43 (11754022_s_at) / RFU A4GNT (11735810_at) / Fold change /veh A4GNT (11735810_at) / RFU PRB3 (11715151_x_at) / Fold change /veh PRB3 (11715151_x_at) / RFU TUBB4B (11761932_at) / Fold change /veh TUBB4B (11761932_at) / RFU CAPN14 (11732068_a_at) / Fold change /veh CAPN14 (11732068_a_at) / RFU TMCC2 (11721928_a_at) / Fold change /veh TMCC2 (11721928_a_at) / RFU IRGQ (11745062_a_at) / Fold change /veh IRGQ (11745062_a_at) / RFU FAM174B (11720279_a_at) / Fold change /veh FAM174B (11720279_a_at) / RFU TMPRSS4 (11748680_a_at) / Fold change /veh TMPRSS4 (11748680_a_at) / RFU FAM212B (11763350_a_at) / Fold change /veh FAM212B (11763350_a_at) / RFU PLEKHG5 (11743358_a_at) / Fold change /veh PLEKHG5 (11743358_a_at) / RFU ZSCAN30 (11745921_a_at) / Fold change /veh ZSCAN30 (11745921_a_at) / RFU CMKLR1 (11741424_a_at) / Fold change /veh CMKLR1 (11741424_a_at) / RFU LOC101060620 /// MAPK8IP1 (11723275_at) / Fold change /veh LOC101060620 /// MAPK8IP1 (11723275_at) / RFU SPTSSB (11747773_x_at) / Fold change /veh SPTSSB (11747773_x_at) / RFU PRSS12 (11739890_at) / Fold change /veh PRSS12 (11739890_at) / RFU BIN1 (11741810_x_at) / Fold change /veh BIN1 (11741810_x_at) / RFU WNT11 (11732464_a_at) / Fold change /veh WNT11 (11732464_a_at) / RFU C10orf10 (11716521_a_at) / Fold change /veh C10orf10 (11716521_a_at) / RFU C5orf56 (11738089_at) / Fold change /veh C5orf56 (11738089_at) / RFU CYB561 (11721691_x_at) / Fold change /veh CYB561 (11721691_x_at) / RFU ANKRD19P (11752326_a_at) / Fold change /veh ANKRD19P (11752326_a_at) / RFU OR2T12 /// OR2T33 /// OR2T8 (11738714_s_at) / Fold change /veh OR2T12 /// OR2T33 /// OR2T8 (11738714_s_at) / RFU VCAN (11748164_a_at) / Fold change /veh VCAN (11748164_a_at) / RFU JSRP1 (11732532_at) / Fold change /veh JSRP1 (11732532_at) / RFU KRTAP10-11 (11738290_x_at) / Fold change /veh KRTAP10-11 (11738290_x_at) / RFU MYO3A (11730013_a_at) / Fold change /veh MYO3A (11730013_a_at) / RFU EBF3 (11725865_a_at) / Fold change /veh EBF3 (11725865_a_at) / RFU CAMK2N1 (11719241_x_at) / Fold change /veh CAMK2N1 (11719241_x_at) / RFU C5orf56 (11738088_a_at) / Fold change /veh C5orf56 (11738088_a_at) / RFU OLFML3 (11715873_a_at) / Fold change /veh OLFML3 (11715873_a_at) / RFU LOC100653217 /// NTM (11731650_a_at) / Fold change /veh LOC100653217 /// NTM (11731650_a_at) / RFU MAPK11 (11762145_a_at) / Fold change /veh MAPK11 (11762145_a_at) / RFU FIZ1 (11724087_x_at) / Fold change /veh FIZ1 (11724087_x_at) / RFU OASL (11726364_x_at) / Fold change /veh OASL (11726364_x_at) / RFU SOX15 (11748057_x_at) / Fold change /veh SOX15 (11748057_x_at) / RFU CD79A (11719716_a_at) / Fold change /veh CD79A (11719716_a_at) / RFU HIST1H1D (11736915_at) / Fold change /veh HIST1H1D (11736915_at) / RFU CASKIN2 (11723855_a_at) / Fold change /veh CASKIN2 (11723855_a_at) / RFU LOC730098 (11760151_x_at) / Fold change /veh LOC730098 (11760151_x_at) / RFU OR4N2 (11742367_at) / Fold change /veh OR4N2 (11742367_at) / RFU PRRT2 (11749266_a_at) / Fold change /veh PRRT2 (11749266_a_at) / RFU SNX32 (11753110_a_at) / Fold change /veh SNX32 (11753110_a_at) / RFU CDHR5 (11726645_a_at) / Fold change /veh CDHR5 (11726645_a_at) / RFU RCAN1 (11760418_a_at) / Fold change /veh RCAN1 (11760418_a_at) / RFU FAM167A (11723789_a_at) / Fold change /veh FAM167A (11723789_a_at) / RFU FAM26E (11764081_at) / Fold change /veh FAM26E (11764081_at) / RFU ISYNA1 (11749810_s_at) / Fold change /veh ISYNA1 (11749810_s_at) / RFU ACY1 (11761880_at) / Fold change /veh ACY1 (11761880_at) / RFU 11764098_at / Fold change /veh 11764098_at / RFU SAMD14 (11745864_x_at) / Fold change /veh SAMD14 (11745864_x_at) / RFU NPB (11741838_a_at) / Fold change /veh NPB (11741838_a_at) / RFU TMPRSS6 (11731388_a_at) / Fold change /veh TMPRSS6 (11731388_a_at) / RFU KRTAP10-2 (11738614_at) / Fold change /veh KRTAP10-2 (11738614_at) / RFU ARHGAP8 /// PRR5-ARHGAP8 (11727945_x_at) / Fold change /veh ARHGAP8 /// PRR5-ARHGAP8 (11727945_x_at) / RFU KRTAP5-7 /// NADSYN1 (11734609_at) / Fold change /veh KRTAP5-7 /// NADSYN1 (11734609_at) / RFU RASL12 (11751679_a_at) / Fold change /veh RASL12 (11751679_a_at) / RFU CDKN2B (11736163_a_at) / Fold change /veh CDKN2B (11736163_a_at) / RFU PRF1 (11729649_at) / Fold change /veh PRF1 (11729649_at) / RFU, ZNF638 /// ZNF638-IT1 / Fold change vs veh, ZNF638 /// ZNF638-IT1 / RFU, PANK3 / Fold change vs veh, PANK3 / RFU, SH3YL1 / Fold change vs veh, SH3YL1 / RFU, ZEB2 / Fold change vs veh, ZEB2 / RFU, NRIP1 / Fold change vs veh, NRIP1 / RFU, PTTG1IP / Fold change vs veh, PTTG1IP / RFU, CAPN2 / Fold change vs veh, CAPN2 / RFU, MED14 / Fold change vs veh, MED14 / RFU, SNORA58 / Fold change vs veh, SNORA58 / RFU, C1orf63 / Fold change vs veh, C1orf63 / RFU, LRRFIP1 / Fold change vs veh, LRRFIP1 / RFU, NDUFAF7 / Fold change vs veh, NDUFAF7 / RFU, SLC12A2 / Fold change vs veh, SLC12A2 / RFU, IBTK / Fold change vs veh, IBTK / RFU, ESF1 / Fold change vs veh, ESF1 / Fold change vs veh, TMEM50B / RFU, TAOK1 / Fold change vs veh, TAOK1 / RFU, ACBD3 / Fold change vs veh, ACBD3 / RFU, TMA16 / Fold change vs veh, TMA16 / RFU, RWDD3 / Fold change vs veh, RWDD3 / RFU, BCAT1 / Fold change vs veh, BCAT1 / RFU, EDEM3 / Fold change vs veh, EDEM3 / RFU, TMEM33 / Fold change vs veh, TMEM33 / RFU, WDR75 / Fold change vs veh, WDR75 / RFU, AHCTF1 / Fold change vs veh, AHCTF1 / RFU, TFRC / Fold change vs veh, TFRC / RFU, ZDHHC17 / Fold change vs veh, ZDHHC17 / RFU, NOM1 / Fold change vs veh, NOM1 / RFU, ARL8B / Fold change vs veh, ARL8B / RFU, ZBTB11 / Fold change vs veh, ZBTB11 / RFU, TAMM41 / Fold change vs veh, TAMM41 / RFU, KIAA1704 /// LOC100996395 / Fold change vs veh, KIAA1704 /// LOC100996395 / RFU, ING1 / Fold change vs veh, ING1 / RFU, TRMT61B / Fold change vs veh, TRMT61B / RFU, FUBP3 / Fold change vs veh, FUBP3 / RFU, TP53 / Fold change vs veh, TP53 / RFU, TNKS2 / Fold change vs veh, TNKS2 / RFU, ZFP14 / Fold change vs veh, ZFP14 / RFU, ACTR2 / Fold change vs veh, ACTR2 / RFU, PPP3R1 / Fold change vs veh, PPP3R1 / RFU, PIK3R1 / Fold change vs veh, PIK3R1 / RFU, HNRNPA1 / Fold change vs veh, HNRNPA1 / RFU, RNF170 / Fold change vs veh, RNF170 / RFU, ZNF28 / Fold change vs veh, ZNF28 / RFU, RNGTT / Fold change vs veh, RNGTT / RFU, OGT / Fold change vs veh, OGT / RFU, BRD1 / Fold change vs veh, BRD1 / RFU, MARS / Fold change vs veh, MARS / RFU, ZNF655 / Fold change vs veh, ZNF655 / RFU, FAHD1 / Fold change vs veh, FAHD1 / RFU, BDP1 / Fold change vs veh, BDP1 / RFU, LRRCC1 / Fold change vs veh, LRRCC1 / RFU, ARID1A / Fold change vs veh, ARID1A / RFU, ZNF146 / Fold change vs veh, ZNF146 / RFU, ZNF330 / Fold change vs veh, ZNF330 / RFU, GPN3 / Fold change vs veh, GPN3 / RFU, C9orf123 / Fold change vs veh, C9orf123 / RFU, N4BP2L2 / Fold change vs veh, N4BP2L2 / RFU, ARFIP1 / Fold change vs veh, ARFIP1 / RFU, FAM179B / Fold change vs veh, FAM179B / RFU, BCL10 / Fold change vs veh, BCL10 / RFU, UHRF1BP1L / Fold change vs veh, UHRF1BP1L / RFU, BET1 / Fold change vs veh, BET1 / RFU, CNOT2 / Fold change vs veh, CNOT2 / RFU, ZNF268 / Fold change vs veh, ZNF268 / Fold change vs veh, ZNF507 / RFU, DGCR2 / Fold change vs veh, DGCR2 / RFU, WDSUB1 / Fold change vs veh, WDSUB1 / Fold change vs veh, HSP90B1 /// MIR3652 / RFU, ADSS / Fold change vs veh, ADSS / RFU, GK / Fold change vs veh, GK / RFU, ZNF148 / Fold change vs veh, ZNF148 / RFU, TAF9 / Fold change vs veh, TAF9 / RFU, SLC1A5 / Fold change vs veh, SLC1A5 / RFU, SLMO2 / Fold change vs veh, SLMO2 / RFU, ABCC4 / Fold change vs veh, ABCC4 / RFU, LOC101060439 /// RAP1B / Fold change vs veh, LOC101060439 /// RAP1B / RFU, RFX7 / Fold change vs veh, RFX7 / RFU, GTPBP10 / Fold change vs veh, GTPBP10 / RFU, CNEP1R1 / Fold change vs veh, CNEP1R1 / RFU, BIVM-ERCC5 /// ERCC5 / Fold change vs veh, BIVM-ERCC5 /// ERCC5 / RFU, ILF3 / Fold change vs veh, ILF3 / RFU 11762660_at / Fold change /veh 11762660_at / RFU VCAN (11757783_s_at) / Fold change /veh VCAN (11757783_s_at) / RFU DDX43 (11728927_at) / Fold change /veh DDX43 (11728927_at) / RFU KRT8 (11758188_x_at) / Fold change /veh KRT8 (11758188_x_at) / RFU NKD1 (11759106_at) / Fold change /veh NKD1 (11759106_at) / RFU SRD5A1 (11742802_a_at) / Fold change /veh SRD5A1 (11742802_a_at) / RFU TPSAB1 /// TPSB2 (11721975_s_at) / Fold change /veh TPSAB1 /// TPSB2 (11721975_s_at) / RFU GSTM3 (11746129_a_at) / Fold change /veh GSTM3 (11746129_a_at) / RFU IL23R (11737362_x_at) / Fold change /veh IL23R (11737362_x_at) / RFU TMEM51 (11727254_a_at) / Fold change /veh TMEM51 (11727254_a_at) / RFU PIWIL2 (11732686_x_at) / Fold change /veh PIWIL2 (11732686_x_at) / RFU ORM1 (11744905_x_at) / Fold change /veh ORM1 (11744905_x_at) / RFU CCDC152 (11743942_at) / Fold change /veh CCDC152 (11743942_at) / RFU ECM1 (11717891_a_at) / Fold change /veh ECM1 (11717891_a_at) / RFU IL23R (11748794_a_at) / Fold change /veh IL23R (11748794_a_at) / RFU TNFAIP8L3 (11732012_x_at) / Fold change /veh TNFAIP8L3 (11732012_x_at) / RFU MBOAT4 (11741988_at) / Fold change /veh MBOAT4 (11741988_at) / RFU 11764193_at / Fold change /veh 11764193_at / RFU TMEM53 (11763286_at) / Fold change /veh TMEM53 (11763286_at) / RFU MAGEB2 (11727129_at) / Fold change /veh MAGEB2 (11727129_at) / RFU TMEM200A (11744735_a_at) / Fold change /veh TMEM200A (11744735_a_at) / RFU CCDC152 (11751479_a_at) / Fold change /veh CCDC152 (11751479_a_at) / RFU FAM211A (11726209_a_at) / Fold change /veh FAM211A (11726209_a_at) / RFU RGS16 (11746705_a_at) / Fold change /veh RGS16 (11746705_a_at) / RFU VCAN (11755009_s_at) / Fold change /veh VCAN (11755009_s_at) / RFU RHOB (11743442_s_at) / Fold change /veh RHOB (11743442_s_at) / RFU RGS16 (11720943_a_at) / Fold change /veh RGS16 (11720943_a_at) / RFU RGS16 (11720944_at) / Fold change /veh RGS16 (11720944_at) / RFU, VPS4B / Fold change vs veh, VPS4B / RFU, CREB1 / Fold change vs veh, CREB1 / RFU, DNAJC13 / Fold change vs veh, DNAJC13 / RFU, GNAQ / Fold change vs veh, GNAQ / RFU, CDK5R1 / Fold change vs veh, CDK5R1 / RFU, ZRANB3 / Fold change vs veh, ZRANB3 / RFU, CUL4A / Fold change vs veh, CUL4A / RFU, CCNY / Fold change vs veh, CCNY / RFU, UFL1 / Fold change vs veh, UFL1 / RFU, COG3 / Fold change vs veh, COG3 / RFU, DIAPH2 / Fold change vs veh, DIAPH2 / RFU, SKA2 / Fold change vs veh, SKA2 / RFU, AFF3 / Fold change vs veh, AFF3 / RFU, LMF1 / Fold change vs veh, LMF1 / RFU, IPO11 / Fold change vs veh, IPO11 / RFU, DFFB / Fold change vs veh, DFFB / RFU, FOXP1 / Fold change vs veh, FOXP1 / RFU, CARD8 / Fold change vs veh, CARD8 / RFU, STRN3 / Fold change vs veh, STRN3 / RFU, ADK / Fold change vs veh, ADK / RFU, RASSF2 / Fold change vs veh, RASSF2 / RFU, WIPF1 / Fold change vs veh, WIPF1 / RFU, LARP1B / Fold change vs veh, LARP1B / RFU, RASA1 / Fold change vs veh, RASA1 / RFU, RB1 / Fold change vs veh, RB1 / RFU, PPFIA1 / Fold change vs veh, PPFIA1 / RFU, MAT2A / Fold change vs veh, MAT2A / RFU, CCT5 / Fold change vs veh, CCT5 / RFU, WDR92 / Fold change vs veh, WDR92 / RFU, CUX1 / Fold change vs veh, CUX1 / RFU, TTC7A / Fold change vs veh, TTC7A / RFU, TMEM135 / Fold change vs veh, TMEM135 / RFU, DEPTOR / Fold change vs veh, DEPTOR / RFU, CPM / Fold change vs veh, CPM / RFU, DNAJB6 / Fold change vs veh, DNAJB6 / RFU, CACNA2D3 / Fold change vs veh, CACNA2D3 / RFU, DTX4 / Fold change vs veh, DTX4 / RFU, TFCP2 / Fold change vs veh, TFCP2 / RFU, GMCL1 /// GMCL1P1 / Fold change vs veh, GMCL1 /// GMCL1P1 / RFU, AEBP2 / Fold change vs veh, AEBP2 / RFU, SNHG1 /// SNORD22 /// SNORD25 /// SNORD26 /// SNORD27 /// SNORD28 /// SNORD29 /// SNORD31 / Fold change vs veh, SNHG1 /// SNORD22 /// SNORD25 /// SNORD26 /// SNORD27 /// SNORD28 /// SNORD29 /// SNORD31 / Fold change (Aza/veh), C12orf56 (ProbeSet 11735607_a_at) / Fold change (ACY-1035/veh), C12orf56 (ProbeSet 11735607_a_at) / Fold change (Aza/veh), FGFR1OP (ProbeSet 11751329_s_at) / Fold change (ACY-1035/veh), FGFR1OP (ProbeSet 11751329_s_at) / Fold change (Aza/veh), VPS36 (ProbeSet 11739960_a_at) / Fold change (ACY-1035/veh), VPS36 (ProbeSet 11739960_a_at) / RFU SYPL1 (11715823_x_at) / Fold change /veh SYPL1 (11715823_x_at) / RFU IGFBP7 (11715501_s_at) / Fold change /veh IGFBP7 (11715501_s_at) / RFU REEP3 (11722064_at) / Fold change /veh REEP3 (11722064_at) / RFU IGLL1 (11728026_x_at) / Fold change /veh IGLL1 (11728026_x_at): dose or concentration left out as unconfirmed
Conditions: MV-4-11 cells, 48 hours

Q: How did the “Fold change /veh TMPRSS6 (11731388_a_at)” value turn out when `Nc1ccc(-c2cccs2)cc1NC(=O)c1ccc2c(c1)cc(C1CC1)n2CCN1CCOCC1` [ACY-1035] was run?
A: 1.10
